From article PMC12530851, “Design, synthesis, and apoptotic antiproliferative activity of novel dihydropyrimidine-5-carbonitrile/1,2,4-oxadiazole hybrids as dual EGFR/VEGFR-2 inhibitors endowed with antioxidant activity” (RSC Advances, 2025)

Legend:
[1] = Cell viability assay (MTT) on normal MCF-10A cells; format: cell-based; details: human, MCF-10A mammary gland epithelial cells (normal cell line), MCF-10A normal cells, four-day incubation
Description: The impact of novel compounds 10a–l on the viability of a normal human cell line, specifically human mammary gland epithelial cells (MCF-10A), was assessed to ascertain the safety of the newly synthesized compounds. The MTT test was employed to assess the cell viability of the novel compounds after a four-day incubation with MCF-10A cells.[29,37] Refer to Appendix A for more experimental details.
The effect of new compounds 10a–l on the viability of a normal human cell line, namely human mammary gland epithelial cells (MCF-10A), was evaluated to determine the safety of the newly synthesized compounds.
4.2. Biological evaluation
4.2.1 Cell Viability assay (MTT assay)
MTT assay was performed to investigate the effect of the synthesized compounds on mammary epithelial cells (MCF-10A). The cells were propagated in medium consisting of Ham's F-12 medium/ Dulbecco's modified Eagle's medium (DMEM) (1:1) supplemented with 10% foetal calf serum, 2 mM glutamine, insulin (10 μg/mL), hydrocortisone (500 ng/mL) and epidermal growth factor (20 ng/mL). Trypsin ethylenediamine tetra acetic acid (EDTA) was used to passage the cells after every 2-3 days. 96-well flat-bottomed cell culture plates were used to seed the cells at a density of 10^4 cells mL-1. The medium was aspirated from all the wells of culture plates after 24 h followed by the addition of synthesized compounds (in 200 μL medium to yield a final concentration of 0.1% (v/v) dimethyl sulfoxide) into individual wells of the plates. Four wells were designated to a single compound. The plates were allowed to incubate at 37°C for 96 h. Afterwards, the medium was aspirated and 3-[4,5-dimethylthiazol-2-yl]-2,5-diphenyltetrazolium bromide (MTT) (0.4 mg/mL) in medium was added to each well and subsequently incubated for 3 h. The medium was aspirated and 150 μL dimethyl sulfoxide (DMSO) was added to each well. The plates were vortexed followed by the measurement of absorbance at 540 nm on a microplate reader. […]

[2] = tested on: A-549 (lung cancer); experiment: Antiproliferative assay, A-549; format: cell-based; details: Homo sapiens, A549; A-549 lung cancer cells; read-out: Antiproliferative activity IC50 ± SEM, A-549
Description: (§1) The dose–response experiments established the IC50 values for the new compounds. The given findings were obtained from at least two distinct studies, each comprising three repeats per concentration. Appendix A (SI File) provides experimental details.[38,39]
(§2) The MTT assay[43] was utilized to assess the antiproliferative effects of compounds 10a–l on four human cancer cell lines: HT-29 (colon cancer), Panc-1 (pancreatic cancer), A-549 (lung cancer), and MCF-7 (breast cancer). […]
(§3) 4.2.2. Assay for antiproliferative effect
(§4) To explore the antiproliferative potential of compounds propidium iodide fluorescence assay was performed using different cell lines such as Panc-1 (pancreas cancer cell line), MCF-7 (breast cancer cell line), HT-29 (colon cancer cell line) and A-549 (epithelial cancer cell line), respectively. To calculate the total nuclear DNA, a fluorescent dye (propidium iodide, PI) is used which can attach to the DNA, thus offering a quick and precise technique. PI cannot pass through the cell membrane and its signal intensity can be considered as directly proportional to quantity of cellular DNA. Cells whose cell membranes are damaged or have changed permeability are counted as dead ones. The assay was performed by seeding the cells of different cell lines at a density of 3000-7500 cells/well (in 200μl medium) in culture plates followed by incubation for 24h at 37 °C in humidified 5%CO2/95% air atmospheric conditions. The medium was removed; the compounds were added to the plates at 10 μM concentrations (in 0.1% DMSO) in triplicates, followed by incubation for 48h. DMSO (0.1%) was used as control. After incubation, medium was removed followed by the addition of PI (25 μl, 50μg/mL in water/medium) to each well of the plates. At - 80 °C, the plates were allowed to freeze for 24 h, followed by thawing at 25 °C. A fluorometer (Polar-Star BMG Tech) was used to record the readings at excitation and emission wavelengths of 530 and 620 nm for each well. The percentage cytotoxicity of compounds was calculated using […]
(§5) Where ATC= Absorbance of treated cells and AC= Absorbance of control. Erlotinib was used as positive control in the assay. […]

[3] = tested on: MCF-7 (breast cancer); experiment: Antiproliferative assay, MCF-7; format: cell-based, human; details: Homo sapiens, MCF7; MCF-7 breast cancer cells; read-out: Antiproliferative activity IC50 ± SEM, MCF-7
Description: as §1, §2, §3, §4, §5

[4] = tested on: Panc-1 (pancreatic cancer); experiment: Antiproliferative assay, Panc-1; format: cell-based; details: Homo sapiens; Panc-1 pancreatic cancer cells; read-out: Antiproliferative activity IC50 ± SEM, Panc-1
Description: as §1, §2, §3, §4, §5

[5] = tested on: HT-29 (colon cancer); experiment: Antiproliferative assay, HT-29; format: cell-based; details: Homo sapiens; HT-29 colon cancer cells; read-out: Antiproliferative activity IC50 ± SEM, HT-29
Description: as §1, §2, §3, §4, §5

[6] = tested on: four human cancer cell lines (A-549, MCF-7, Panc-1, HT-29); experiment: Antiproliferative assay, average over four cancer cell lines; format: cell-based; details: for GI50: average IC50 across A-549, MCF-7, Panc-1, HT-29; for Reduction in antiproliferative potency relative to 10k (GI50): less potent than 10k
Description: The given findings were obtained from at least two distinct studies, each comprising three repeats per concentration. Appendix A (SI File) provides experimental details.[38,39] […]
as §3
To explore the antiproliferative potential of compounds propidium iodide fluorescence assay was performed using different cell lines such as Panc-1 (pancreas cancer cell line), MCF-7 (breast […]
respectively. To calculate the total nuclear DNA, a fluorescent dye (propidium iodide, PI) is used which can attach to the DNA, thus offering a quick and precise technique. PI cannot pass through the cell membrane and its signal intensity can be considered as directly proportional to quantity of cellular DNA. Cells whose cell membranes are damaged or have changed permeability are counted as dead ones. The assay was performed by seeding the cells of different cell lines at a density of 3000-7500 cells/well (in 200μl medium) in culture plates followed by incubation for 24h at 37 °C […]
The medium was removed; the compounds were added to the plates at 10 μM concentrations (in 0.1% DMSO) in triplicates, followed by incubation for 48h. DMSO (0.1%) was used as control. After incubation, medium was removed followed by the addition of PI (25 μl, 50μg/mL in water/medium) to each well of the plates. At - 80 °C, the plates were allowed to freeze for 24 h, followed by thawing at 25 °C. A fluorometer (Polar-Star BMG Tech) was used to record the readings at excitation and emission wavelengths of 530 and 620 nm for each well. The percentage cytotoxicity of compounds was calculated using […]
Where ATC= Absorbance of treated cells and AC= Absorbance of control. […]
positive control in the assay. […]

[7] = molecular target: VEGFR-2 (Homo sapiens, UniProt P35968); experiment: VEGFR-2 inhibitory assay
VEGFR-2, sequence (P35968 20-1356): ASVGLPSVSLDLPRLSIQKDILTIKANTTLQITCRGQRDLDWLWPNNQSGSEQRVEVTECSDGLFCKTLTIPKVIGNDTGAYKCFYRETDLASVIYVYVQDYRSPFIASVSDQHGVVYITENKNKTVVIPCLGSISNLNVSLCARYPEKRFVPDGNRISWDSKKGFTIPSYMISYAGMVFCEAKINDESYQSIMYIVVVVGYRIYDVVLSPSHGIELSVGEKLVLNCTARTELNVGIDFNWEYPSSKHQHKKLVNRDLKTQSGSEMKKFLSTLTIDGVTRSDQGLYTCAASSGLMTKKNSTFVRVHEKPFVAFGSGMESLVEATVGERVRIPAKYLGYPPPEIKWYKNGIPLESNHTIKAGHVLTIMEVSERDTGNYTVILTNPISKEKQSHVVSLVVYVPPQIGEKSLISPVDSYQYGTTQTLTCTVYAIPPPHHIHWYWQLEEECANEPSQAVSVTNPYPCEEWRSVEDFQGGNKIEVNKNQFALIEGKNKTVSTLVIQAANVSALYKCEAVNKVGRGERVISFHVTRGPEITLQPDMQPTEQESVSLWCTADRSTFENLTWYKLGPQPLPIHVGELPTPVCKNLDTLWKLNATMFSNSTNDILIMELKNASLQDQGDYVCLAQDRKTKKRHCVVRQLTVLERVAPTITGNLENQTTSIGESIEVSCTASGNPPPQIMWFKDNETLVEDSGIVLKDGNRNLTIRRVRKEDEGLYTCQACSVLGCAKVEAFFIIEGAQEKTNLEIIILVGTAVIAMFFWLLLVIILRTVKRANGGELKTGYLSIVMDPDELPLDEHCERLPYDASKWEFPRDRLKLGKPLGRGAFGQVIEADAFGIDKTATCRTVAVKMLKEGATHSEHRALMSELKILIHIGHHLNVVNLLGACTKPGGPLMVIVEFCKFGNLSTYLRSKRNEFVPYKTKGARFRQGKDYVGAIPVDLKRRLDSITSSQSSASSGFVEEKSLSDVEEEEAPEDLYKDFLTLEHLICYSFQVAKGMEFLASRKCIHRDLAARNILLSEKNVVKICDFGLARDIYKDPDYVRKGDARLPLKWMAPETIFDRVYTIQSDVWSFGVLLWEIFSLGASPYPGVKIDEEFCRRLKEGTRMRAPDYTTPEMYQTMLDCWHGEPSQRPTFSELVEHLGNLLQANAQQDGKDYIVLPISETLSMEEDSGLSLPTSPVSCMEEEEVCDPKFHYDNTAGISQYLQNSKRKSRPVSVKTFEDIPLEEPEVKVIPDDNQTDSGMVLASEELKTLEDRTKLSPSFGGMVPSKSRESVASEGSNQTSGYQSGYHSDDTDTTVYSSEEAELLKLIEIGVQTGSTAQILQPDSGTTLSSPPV
Description: The majority of signals detected by antiphosphotyrosine antibody were from EGFR because the enzyme preparation contained low impurities.
Prepare all the solutions using autoclaved, deionized water and analytical grade reagents. Prepare
and store all the reagents at room temperature (unless indicated otherwise). EDTA solution (0.5
M, pH 8.0): add 95 mL ultra-pure water to 14.612 g EDTA, adjust the pH to 8.0 using NaOH
solution, add 5 mL ultra-pure water; 1×Kinase Assay Buffer: add 25 mL HEPES solution (1 M),
water, adjust pH to 7.5 and constant volume to 500 mL using ultrapure water; 4×Stop solution (40
mM): Mix 0.8 mL of the foregoing EDTA solution, 1 mL 10×Detection Buffer and 8.2 mL ultra-
pure water; 1×Detection Buffer: Mix 1 mL 10×Detection Buffer with 9 mL water; 4×VEGFR
μM) was added to 624 μL 1×Kinase Assay Buffer and mixed; 4×ULight™-labeled JAK1
concentration 5 μM) was added to 576 μL 1×Kinase Assay Buffer and mixed; 4×ATP Solution
2×substrate/ATP Mix: 560 μL foregoing 4×ULight™-labeled JAK1 and 560 μL 4×ATP solution
and mixed (prepared before use). The assays used an ULight-labeled peptide substrate and a
Europium-W1024-labeled antiphosphotyrosine antibody. The VEGFR-2 was purchased from
Carna Biosciences, Inc. (New York, USA). The 384-well plates were obtained from PerkinElmer.
Compounds were dissolved in DMSO and diluted to 11 concentrations at a tripling rate from 2.500
5 μL 2×VEGFR-2 kinase solution (0.5 nM)
was added to 384-well plates homogeneous mixing and pre-reaction at room temperature for 30
min. Next, 2.5 μL 4×Ultra ULightTM-JAK-1(Tyr1023) Peptide (200 nM)/ATP (40 μM) was
added to the corresponding wells of a 384-well plate. Negative control: 2.5 μL/well 4×substrate/ATP mixture and 7.5 μL 1×kinase assay buffer in 384-well plate well. Positive control:
μL/well 2×VEGFR-2 kinase solution was added to the 384-well plate, The final concentration of DMSO in the mixing system was 4%. After incubation at room temperature and dark for 60 min, 5 μL 4×stop solution was added to corresponding wells to react for 5 min and then 5 μL 4×detection mix was added to the corresponding wells of a 384-well plate. The mixture was centrifugally mixed and stayed for 60 min at room temperature for color development. The plate
was read using an Envision plate reader. The inhibition rate (%) = (positive well reading-
compound well reading)/(positive well reading-negative well reading)×100. The corresponding IC50 values were calculated using GraphPad Prism 5.0.

[8] = molecular target: EGFR (Homo sapiens, UniProt P00533); experiment: EGFR inhibitory assay (EGFR-TK test)
EGFR, sequence (P00533 669-1210): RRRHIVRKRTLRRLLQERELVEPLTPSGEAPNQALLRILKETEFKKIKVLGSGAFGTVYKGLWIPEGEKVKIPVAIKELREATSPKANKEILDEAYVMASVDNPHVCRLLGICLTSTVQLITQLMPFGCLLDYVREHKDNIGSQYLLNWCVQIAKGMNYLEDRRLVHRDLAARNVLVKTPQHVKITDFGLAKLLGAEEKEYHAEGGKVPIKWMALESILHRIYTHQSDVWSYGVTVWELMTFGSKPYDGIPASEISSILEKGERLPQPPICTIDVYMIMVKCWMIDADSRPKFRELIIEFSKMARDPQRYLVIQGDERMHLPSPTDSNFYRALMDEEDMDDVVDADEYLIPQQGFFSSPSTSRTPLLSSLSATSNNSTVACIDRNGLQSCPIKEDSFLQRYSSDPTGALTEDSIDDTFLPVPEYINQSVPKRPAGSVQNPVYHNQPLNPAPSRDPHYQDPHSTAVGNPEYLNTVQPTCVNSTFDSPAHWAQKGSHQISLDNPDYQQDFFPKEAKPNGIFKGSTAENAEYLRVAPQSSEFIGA
Description: Baculoviral expression vectors including pBlueBacHis2B and pFASTBacHTc were used
5ʹ upstream to the EGFR sequence comprised a sequence that encoded (His)6. Sf-9 cells were infected for 72h for protein expression. The pellets of Sf-9 cells were solubilized in a buffer containing sodium vanadate (100 μM), aprotinin (10 μg/mL), triton (1%), HEPES
buffer(50mM), ammonium molybdate (10 μM), benzamidine HCl (16 μg/mL), NaCl (10 mM),leupeptin (10 μg/mL) and pepstatin (10 μg/mL) at 0°C for 20 min at pH 7.4, followed by centrifugation for 20 min. To eliminate the nonspecifically bound material, a Ni-NTA super flow packed column was used to pass through and wash the crude extract supernatant first with 10mM and then with 100 mM imidazole. Histidine-linked proteins were first eluted with 250 and then with 500 mM imidazole subsequent to dialysis against NaCl (50 mM), HEPES (20 mM), glycerol (10%) and 1 μg/mL each of aprotinin, leupeptin and pepstatin for 120 min. The purification was performed either at 4 °C or on ice. To record autophosphorylation level, EGFR kinase assay was carried out on the basis of DELFIA/Time-Resolved Fluorometry. The compounds were first
dissolved in DMSO absolute, subsequent to dilution to appropriate concentration using HEPES
(25 mM) at pH 7.4. Each compound (10 μL) was incubated with recombinant enzyme (10 μL, 5
ng for EGFR, 1:80 dilution in 100 mM HEPES) for 10 min at 25 °C, subsequent to the addition of
5X buffer (10 μL, containing 2 mM MnCl2, 100 μM Na3VO4, 20 mM HEPES and 1 mM DTT)
and ATP-MgCl2 (20 μL, containing 0.1 mM ATP and 50 mM MgCl2) and incubation for 1h. The
negative and positive controls were included in each plate by the incubation of enzyme either with
or without ATP-MgCl2. The liquid was removed after incubation and the plates were washed
thrice using a wash buffer. The Europium-tagged antiphosphotyrosine antibody (75 μL, 400 ng)
was added to each well followed by incubation of 1h and then washing of the plates using buffer.
The enhancement solution was added to each well and the signal was recorded at excitation and
The autophosphorylation percentage inhibition by compounds was calculated using the following equation:
calculated. The majority of signals detected by antiphosphotyrosine antibody were from EGFR because the enzyme preparation contained low impurities.

[9] = tested on: caspase-3; experiment: Caspase-3 activation assay in MCF-7 cells; format: cell-based, human; details: vs untreated control
[10] = tested on: caspase-8; experiment: Caspase-8 activation assay in MCF-7 cells; format: cell-based, human
Description: (§6) Compounds10k and 10l were tested as caspases-3, 8, 9, Bax and p53 activators and as down-regulators of the anti-apoptotic protein Bcl2 against the MCF-7 breast cancer cell line.[41] Appendix A gives more details.
(§7) To elucidate the apoptotic processes of compounds 10k and 10l, whether via the intrinsic or extrinsic pathway, their impacts on caspase-8 and caspase-9 were evaluated. […] This signifies the activation of both intrinsic and extrinsic pathways (Table 5).
(§8) 4.2.6. Caspase-8/9 activation assay
(§9) Cells were obtained from American Type Culture Collection, cells were grown in RPMI 1640 containing 10% fetal bovine serum at 37°C, stimulated with the compounds to be tested for caspase 8/9, and lysed with Cell Extraction Buffer. This lysate was diluted in Standard Diluent Buffer over the range of the assay and measured for human active caspase-8/9 content. (Cells are Plated in a density of 1.2 – 1.8 × 10,000 cells/well in a volume of 100µl complete growth medium + 100 ul of the tested compound per well in a 96-well plate for 24 hours before the enzyme assay). The absorbance of each microwell was read on a spectro-photometer at 450 nm. […]

[11] = tested on: caspase-9; experiment: Caspase-9 activation assay in MCF-7 cells; format: cell-based, human
Description: as §6, §7, §8, §9

IC50 [2] | IC50 [3] | IC50 [4] | IC50 [5] | GI50 ([6]; Homo sapiens) | Reduction in antiproliferative potency relative to 10k (GI50) [6] | GI50 [6] | IC50 [7] | IC50 [8] | SMILES | viability at 96 h, 50 µM [1] | Caspase-3 Fold change [9] | Caspase-8 Conc [10] | Caspase-8 Fold change ([10]; vs untreated control) | Caspase-9 Conc [11] | Caspase-9 Fold change ([11]; vs untreated control)
39 ± 2 nM | 35 ± 2 nM | 37 ± 2 nM | 40 ± 2 nM | 38 nM | – | – | – | – | N#Cc1c(-c2ccc(Cl)cc2)nc(SCc2nc(-c3ccccc3)no2)[nH]c1=O [Compound 10g, 2-(((3-Phenyl-1,2,4-oxadiazol-5-yl)methyl)thio)-4-(4-chlorophenyl)-6-oxo-1,6-dihydropyrimidine-5-carbonitrile] | 90% | – | – | – | – | –
69 ± 5 nM | 65 ± 5 nM | 68 ± 5 nM | 70 ± 5 nM | 68 nM | 3 fold | – | – | – | COc1ccc(-c2nc(SCc3nc(-c4ccccc4)no3)[nH]c(=O)c2C#N)cc1 [Compound 10j, 2-(((3-Phenyl-1,2,4-oxadiazol-5-yl)methyl)thio)-4-(4-methoxyphenyl)-6-oxo-1,6-dihydropyrimidine-5-carbonitrile] | 89% | – | – | – | – | –
35 ± 2 nM | 31 ± 2 nM | 35 ± 2 nM | 36 ± 2 nM | 31 nM | 1.6 fold | 34 nM | 43 ± 3 nM | 79 ± 5 nM | N#Cc1c(-c2ccc(Cl)cc2)nc(SCc2nc(-c3ccc(Cl)cc3)no2)[nH]c1=O [Compound 10h, 2-(((3-(4-Chlorophenyl)-1,2,4-oxadiazol-5-yl)methyl)thio)-4-(4-chlorophenyl)-6-oxo-1,6-dihydropyrimidine-5-carbonitrile] | 92% | – | – | – | – | –
65 ± 5 nM | 61 ± 5 nM | 61 ± 5 nM | 66 ± 5 nM | 63 nM | 2.9 fold | – | – | – | N#Cc1c(-c2ccccc2)nc(SCc2nc(-c3ccc(Cl)cc3)no2)[nH]c1=O [Compound 10b, 2-(((3-(4-Chlorophenyl)-1,2,4-oxadiazol-5-yl)methyl)thio)-6-oxo-4-phenyl-1,6-dihydropyrimidine-5-carbonitrile] | 90% | – | – | – | – | –
52 ± 4 nM | 49 ± 3 nM | 50 ± 4 nM | 54 ± 4 nM | 51 nM | – | – | – | – | COc1ccc(-c2noc(CSc3nc(-c4ccncc4)c(C#N)c(=O)[nH]3)n2)cc1 [Compound 10f, 2-(((3-(4-Methoxyphenyl)-1,2,4-oxadiazol-5-yl)methyl)thio)-6-oxo-4-(pyridin-4-yl)-1,6-dihydropyrimidine-5-carbonitrile] | 91% | – | – | – | – | –
49 ± 3 nM | 44 ± 3 nM | 44 ± 3 nM | 51 ± 3 nM | 47 nM | – | – | – | – | COc1ccc(-c2noc(CSc3nc(-c4ccccc4)c(C#N)c(=O)[nH]3)n2)cc1 [Compound 10c, 2-(((3-(4-Methoxyphenyl)-1,2,4-oxadiazol-5-yl)methyl)thio)-6-oxo-4-phenyl-1,6-dihydropyrimidine-5-carbonitrile] | 92% | – | – | – | – | –
56 ± 4 nM | 51 ± 4 nM | 53 ± 4 nM | 57 ± 4 nM | 54 nM | – | – | – | – | N#Cc1c(-c2ccncc2)nc(SCc2nc(-c3ccccc3)no2)[nH]c1=O [Compound 10d, 2-(((3-Phenyl-1,2,4-oxadiazol-5-yl)methyl)thio)-6-oxo-4-(pyridin-4-yl)-1,6-dihydropyrimidine-5-carbonitrile] | 89% | – | – | – | – | –
– | – | – | – | – | – | – | – | – | CN[C@@H]1C[C@H]2O[C@@](C)([C@@H]1OC)n1c3ccccc3c3c4c(c5c6ccccc6n2c5c31)C(=O)NC4 [Staurosporine, reference compound] | – | 7.00 fold | 1.90 ± 0.10 ng/mL | 19.00 fold | 20 ± 1 ng/mL | 20 fold
44 ± 3 nM | 40 ± 3 nM | 42 ± 3 nM | 45 ± 3 nM | 43 nM | – | – | – | – | N#Cc1c(-c2ccccc2)nc(SCc2nc(-c3ccccc3)no2)[nH]c1=O [Compound 10a, 2-(((3-Phenyl-1,2,4-oxadiazol-5-yl)methyl)thio)-6-oxo-4-phenyl-1,6-dihydropyrimidine-5-carbonitrile] | 91% | – | – | – | – | –

SMILES | IC50 [2] | IC50 [3] | IC50 [4] | IC50 [5] | GI50 ([6]; Homo sapiens) | Reduction in antiproliferative potency relative to 10k (GI50) [6] | GI50 [6] | IC50 [7] | IC50 [8] | viability at 96 h, 50 µM [1] | Caspase-3 Fold change [9] | Caspase-8 Conc [10] | Caspase-8 Fold change ([10]; vs untreated control) | Caspase-9 Conc [11] | Caspase-9 Fold change ([11]; vs untreated control)
C#Cc1cccc(Nc2ncnc3cc(OCCOC)c(OCCOC)cc23)c1 [Erlotinib, reference compound] | 30 ± 3 nM | 40 ± 3 nM | 30 ± 3 nM | 30 ± 3 nM | – | – | – | – | – | – | – | – | – | – | –
